Test results as given in US12377095B2, “Use of ligustrazine nitrone derivatives in treatment and prevention of diabetic complication diseases” (QINGDAO HAILAN PHARMACEUTICALS CO., LTD., priority 2019, dated 2025).

Assays:
STZ-induced DKD rats = assay: Blood glucose and urine protein in STZ-induced DKD rats; format: in vivo, rat
Method: SD rats (200±10 g) were used as model animals, which were fasted for 12 h before injection. STZ was dissolved in citrate buffer at 1% concentration, and rats were fasted and intraperitoneally injected with 55 mg/kg STZ and placed in the cage, the rats being ensured with adequate water intake for 24 h. STZ injections need to be fast and complete within 10 minutes of injection. The normal control group was injected with an equal volume of pH 4.5 citric acid-sodium citrate buffer. The state of the animals (multiple drinking and polyuria) was observed. After 3 weeks of STZ injection, blood was collected from the tail vein, and fasting blood glucose ≥16.7 mmol/L was measured as the standard for diabetic nephropathy in rats.
DKD rats were randomly assigned to 6 groups and given with different drugs. After 6 weeks of administration, the experiment was terminated and the protective effect of the drug on DKD rats was observed.
During the experiment, the blood glucose of the rats was monitored after the completion of the modeling and after the completion of the administration, and urine protein was collected once at 24 hour.

EPO mRNA = EPO mRNA by RT-PCR in CoCl2-induced HepG2 cell hypoxia model; settings: 30 μM, 24 h, HepG2 cells, 50 μM CoCl2
STZ-induced SHR rats = assay: Serum iron ion content in STZ-induced SHR rats; format: in vivo, rat; settings: TBN group (T60), 60 mg/kg
Method: 6 W-age SHR rats were abstained from food but not water for 12 h before injection, and then intraperitoneally injected with 55 mg/kg STZ after weighing (STZ required for fast injection, to be completed within 10 min), then put back to the cage to ensure that rat has sufficient drinking water in the period of 24 h, and the rats of normal control group were injected with citric acid buffer (pH 4.5) in the same volume. After 3 weeks of STZ injection, retinal venous blood was collected, and blood glucose ≥16.7 mmol/L was used as a molding standard, where the model of SHR rats that meet the above criteria is considered successful.
The route of administration is intragastrical, TBN is administered twice a day (fixed at 9:00-10:00 am and 3:00-4:00 pm), and Losartan is administered once a day (fixed at 9:00-10:00 am), continuously for 6 weeks.
At the end of the experiment, after rats were anesthetized, blood was taken from the rear abdominal aortic pulse, allowed to stand for 1 h, centrifuged at 3000 rmp centrifuged for 10 min to collect supernatant, and the iron ion content was measured by using an automated biochemical device and the level of red cells in serum was detected by using kits.

SMILES: Cc1nc(C)c(/C=[N+](\[O-])C(C)(C)C)nc1C [TBN]
- urinary protein content in urine (STZ-induced DKD rats; 24 hour urine, DKD rats): significantly reduced
- blood glucose (STZ-induced DKD rats; after 6 weeks of treatment): significantly decreased
- expression of EPO mRNA (EPO mRNA): significantly increase
- content of iron ions in serum vs model group (STZ-induced SHR rats): significantly increased
